Assay results published in US20080194548A1, “Drug Combination Therapy and Pharmaceutical Compositions for Treating Inflammatory Disorders” (priority 2005, published 2008).

How the values were obtained:
[1] = system: Female C57BL/6 mice; assay: MOGp35-55-induced disease activity model in mice (oral gavage, daily disease activity score); assay type: in vivo; conditions: single agent; for maximal extent and duration of disease activity: compared with control animals; for onset of disease symptoms: low and high doses, compared to animals that receive vehicle
[2] = system: inducible nitric oxide synthetase (i-NOS); conditions: microglia and astrocytes; cited from earlier work
[3] = system: cytokine TNFα; conditions: microglia and astrocytes; cited from earlier work
[4] = system: monocyte chemoattractant protein 1 (MCP1); conditions: human peripheral blood mononuclear cells or cultured endothelial cells; cited from earlier work

| Compound | maximal extent and duration of disease activity [1] | onset of disease symptoms [1] | inhibition of inducible nitric oxide synthetase (i-NOS) [2] | inhibition of the cytokine TNFα [3] | inhibition of MCP1 production [4] |
| --- | --- | --- | --- | --- | --- |
| CC(C)[C@]1(C(=O)N2COc3ccc(C(F)(F)F)cc3C2)CC[C@@H](N2CC[C@@H](c3cccc(C(=O)O)c3)[C@H](C)C2)C1 (single isomer, unassigned) [Compound 4, 3-[(3S,4R or 3R,4S)-1-((1R,3S)-3-Isopropyl-3-{[6-(trifluoromethyl)-2H-1,3-benzoxazin-3(4H)-yl]carbonyl}cyclopentyl)-3-methylpiperidin-4-yl]benzoic acid] | reduced compared with control animals | delayed in a dose-dependent manner |  |  |  |
| CO[C@@H]1COCC[C@@H]1N[C@@H]1CC[C@@](C(=O)N2CCc3ncc(C(F)(F)F)cc3C2)(C(C)C)C1 [Compound 1, N-((1R,3S)-3-isopropyl-3-{[3-(trifluoromethyl)-7,8-dihydro-1,6-naphthyridin-6(5H)-yl]carbonyl}cyclopentyl)-N-[(3S,4S)-3-methoxytetrahydro-2H-pyran-4-yl]amine] | reduced compared with control animals | delayed in a dose-dependent manner |  |  |  |
| CC[C@H](C)C(=O)O[C@H]1C[C@@H](C)C=C2C=C[C@H](C)[C@H](CC[C@@H]3C[C@@H](O)CC(=O)O3)[C@H]21 [Lovastatin, lovastatin] |  |  | inhibit | inhibit | inhibit |
| CC(C)c1c(C(=O)Nc2ccccc2)c(-c2ccccc2)c(-c2ccc(F)cc2)n1CC[C@@H](O)C[C@@H](O)CC(=O)O [atorvastatin] | reduced compared with control animals | delayed in a dose-dependent manner |  |  |  |
